According to patent US20210113501A1, “METHOD OF ADMINISTERING BETA-HYDROXY-BETA-METHYLBUTYRATE (HMB)” (Metabolic Technologies, Inc., priority 2009, published 2021):
“And” between values parts separate entries of the source, which are not always exact repeats. Equal entries are not always repeated. Where two headings read alike, the source gives them in different places.

What was measured:
[1] = Study 1: plasma HMB after a single dose, sampled to 180 min; format: in vivo, human; details: for AUC plasma HMB / greater area under the curve (AUC) than CaHMB: 180 min; for Cpeak (peak plasma HMB concentration): single dose 1 g CaHMB or 0.80 g free acid
Description: (§1) Human subjects. In study 1, four male and four female college-aged subjects were studied. In study 2, an additional four male and four female college-aged subjects were studied. The protocols for both studies were approved by the Iowa State University IRB and each subject gave informed consent to participate in the study. Due to the nature of the treatments, neither the subjects nor the researchers could be blinded.
(§2) Treatments. The same treatments were given to the subjects in both study groups. The three treatments were given in random order to each subject with at least a one week washout period between treatments. The treatments were supplied by Metabolic Technologies, Inc. (MTI, Ames, Iowa) and were prepared with food grade ingredients. One gram of CaHMB or the equivalent HMB in free acid in a gel form was administered to the subjects. The CaHMB capsules were obtained from a commercial supplement manufacturer (Optimum Nutrition, Aurora, Ill.) while the HMB-acid gel was prepared at MTI laboratories. Briefly, the HMB-acid was adjusted to a pH 4.5 with potassium carbonate (K2CO3) and flavors and sweeteners were then added. The 1.0 g CaHMB capsule was taken with 355 mL of water (approx. 12 oz.). The free acid gel dosage was 0.80 g and was equivalent to the free acid contained in the CaHMB in the capsule. The free acid gel treatments were either swallowed (FASW) or held sublingual for 15 seconds and then swallowed (FASL). FASW consisted of expelling the entire dose into the mouth in a 3 ml syringe, swallowing, and then following this with 355 mL of water. FASL subjects were instructed to place the entire dosage under the tongue and hold the dosage for 15 sec before swallowing. They then rinsed and followed the dose with 355 mL of water.
Study 1 design. For study 1 the subjects reported to the laboratory in the morning following an overnight fast. Before ingestion of one of the supplemental treatments, a flexible sterile polyethylene catheter was inserted into a forearm vein using sterile procedures and a pre-ingestion blood sample was drawn. Subsequent blood samples were taken at 0, 2, 5, 10, 15, 25, 35, 45, 60, 90, 120 and 180 min after ingestion of the treatment. Plasma was separated and samples were stored frozen at −70° C. for analysis of HMB concentration. In addition, a portion of the pre-ingestion and 180 minute blood samples were used for measurements (LabCorp, Kansas City, Mo.) of glucose, uric acid, blood urea nitrogen (BUN), creatinine, sodium, potassium, chloride, carbon dioxide, phosphorous, protein, albumin, globulin, albumin:globulin ratio, total bilirubin, direct bilirubin, alkaline phosphatase, lactate dehydrogenase, aspartate aminotransferase (AST), alanine aminotransferase (ALT), gamma-glutamyl transpeptidase (GGT), iron binding capacity (TIBC), unsaturated iron binding capacity (UIBC), iron, iron saturation, total cholesterol, triglycerides, high density lipoprotein (HDL), low density lipoprotein (LDL), and cholesterol ratio. A complete blood count (CBC) was also performed before and after the 180 min treatment period. Subjects also completed a brief questionnaire to report any physical symptoms (such as nausea, headache, etc) they may have experienced during the experiment.
(§3) HMB analysis. Plasma and urine HMB were analyzed by gas chromatography/mass spectrometry (GC/MS) as previously described.(27)
Calculations and statistics. Areas under the curves were calculated for each subject using the trapezoidal method that sums the area above baseline.(51) Half-life of plasma HMB was calculated for study 2. The following equations were used: […]
The data were analyzed using a crossover design with Proc GLM in SAS. (45) For the timed sampling of plasma HMB a repeated measures polynomial model was used. The model included subject, order, and treatment main effects and time by treatment interaction where appropriate. […]

[2] = Study 2: plasma HMB and urinary HMB excretion over 24 h; format: in vivo, human; details: Study 2; for AUC plasma HMB: 24 h; for Clearance: Vd assumed 20% of body weight; for tpeak: unit as in Table 5; for AUC greater than for CaHMB capsules: over 24 hours
Description: as §1, §2
Study 2 design. Study 2 was conducted similar to study 1 with the following modifications. In study 2, plasma levels of HMB were measured for 1440 min (24 h) and total urine collection was also performed for measurement of urinary HMB excretion during this period. After the 180 min blood sample, the subjects were allowed to leave the laboratory and were instructed to return to the laboratory for additional blood samples at 360, 720, and 1440 min after the ingestion of the supplement. As in study 1, each subject took each of the treatments with at least a one week washout period between treatments. Samples were again stored frozen at −70° C. for analysis of plasma and urinary HMB concentrations. Pre-ingestion, 180 min and 1440 min blood samples were again assayed for the same measurements already for study 1. Subjects were provided with a standardized lunch after the 180 min blood sampling and instructed to eat this at approximately 240 min post ingestion. Following the 720 min blood sample, subjects were instructed to eat a normal evening meal before 10 pm. Subjects reported back to the laboratory the following morning for the fasted 1440 min blood sample. A urine collection container was provided and subjects collected all urine produced during the experimental 24 h experimental period. The urine was stored refrigerated when not being collected. Urine volumes were measured and samples of the total urine collection were taken and stored frozen at −70° C. until analyzed for HMB.
as §3
Calculations and statistics. Areas under the curves were calculated for each subject using the trapezoidal method that sums the area above baseline.(51) Half-life of plasma HMB was calculated for study 2. The following equations were used:
k=(ln(Cpeak)−ln(Ctrough))/Tinterval
Peak plasma concentrations for each subject were used for Cpeak. […] Tpeak was the time at which Cpeak was measured and Tinterval is the time from Tpeak until the time at Ctrough (720 min). The extracellular fluid compartment was assumed to be 20% of body weight and calculated using equation 3 below(1). […]

[3] = listed as Free Acid Gel Sublingual
[4] = listed as Free Acid Gel Swallow

For `CC(C)(O)CC(=O)[O-].CC(C)(O)CC(=O)[O-].[Ca+2]` [CaHMB, calcium β-hydroxy-β-methylbutryate, reference compound], the time of peak plasma HMB [1] was 122 ± 15.6 min, the “tpeak (time to reach peak plasma concentration)” value [1] was 121.9 ± 15.6 min and the “AUC plasma HMB” value [1] was 13,997 ± 1,534 nmol/180 min. For the same molecule, the “Cpeak (peak plasma HMB concentration)” value [1] was 131 ± 10 nmol/mL and 131.2 ± 10.1 nmol/mL, the “24 h Urine HMB” value [2] was 1.00 ± 0.13 mmol and the “24 h Urine HMB, % initial dose” value [2] was 14.7±2.0 % initial dose. The “Cpeak (peak plasma HMB concentration)” value [2] was 131.2 ± 6.0 nmol/mL, the “Half-life of plasma HMB” value [2] was 3.17 ± 0.22 h and the “time to peak plasma HMB concentration” value [2] was 135.0 ± 17.0 min. For the same molecule, the “AUC plasma HMB” value [2] was 46,281 ± 2,717 nmol/1440 min, the Clearance [2] was 53.9 ± 4.2 mL/min and the “plasma HMB level at 360 and 720 min versus free acid gel” value ([2]; p<0.05) was “slightly higher”. It also gave a tpeak [2] of 135 ± 17 min.

For `CC(C)(O)CC(=O)O` [HMB-Acid Gel Sublingual, 3-hydroxy-3-methylbutyric acid], the “greater area under the curve (AUC) than CaHMB” value ([1]; listed as FASL) was 91%, the “AUC plasma HMB” value [1, 3] was 26,778 ± 1,980 nmol/180 min and the “tpeak (time to reach peak plasma concentration)” value ([1]; listed as FASL) was 36.3 ± 1.3 min. For the same molecule, the “tpeak (time to reach peak plasma concentration)” value [1, 3] was 36.3 ± 1.3 min, the “Cpeak (peak plasma HMB concentration)” value ([1]; listed as FASL) was 231 ± 21 nmol/mL and the “Cpeak (peak plasma HMB concentration)” value [1, 3] was 231.2 ± 21.0 nmol/mL. The “24 h Urine HMB” value [2] was 1.16 ± 0.17 mmol, the “24 h Urine HMB, % initial dose” value [2] was 17.2 ± 2.5 % initial dose and the “Cpeak (peak plasma HMB concentration)” value [2] was 247.6 ± 19.8 nmol/mL. For the same molecule, the “AUC plasma HMB” value [2] was 52,886 ± 2,729 nmol/1440 min, the Clearance [2] was 66.9 ± 1.6 mL/min and the “24 h Urine HMB, % initial dose” value ([2]; listed as FASL) was 17.2±2.5 % initial dose. For the same molecule, the “Cpeak (peak plasma HMB concentration)” value ([2]; listed as FASL) was 247.6 ± 19.8 nmol/mL, the “Half-life of plasma HMB” value ([2]; listed as FASL) was 2.51 ± 0.14 h and the “time to peak plasma HMB concentration” value ([2]; listed as FASL) was 38.8 ± 2.6 min. The “AUC greater than for CaHMB capsules” value ([2]; listed as FASL) was 14.3% and the tpeak [2] was 38.8 ± 2.6 min.

With `CC(C)(O)CC(=O)O` [HMB-Acid Gel Swallow, 3-hydroxy-3-methylbutyric acid] the “greater area under the curve (AUC) than CaHMB” value ([1]; listed as FASW) was 97%, the “AUC plasma HMB” value [1, 4] was 27,532 ± 1,742 nmol/180 min and the “tpeak (time to reach peak plasma concentration)” value ([1]; listed as FASW) was 33.1 ± 4.6 min. For the same molecule, the “tpeak (time to reach peak plasma concentration)” value [1, 4] was 33.1 ± 4.6 min, the “Cpeak (peak plasma HMB concentration)” value ([1]; listed as FASW) was 259 ± 24 nmol/mL and the “Cpeak (peak plasma HMB concentration)” value [1, 4] was 259.1 ± 23.9 nmol/mL. The “24 h Urine HMB” value [2] was 1.21 ± 0.19 mmol, the “24 h Urine HMB, % initial dose” value [2] was 17.8 ± 2.9 % initial dose and the “Cpeak (peak plasma HMB concentration)” value [2] was 238.6 ± 16.0 nmol/mL. The “AUC plasma HMB” value [2] was 53,395 ± 2,862 nmol/1440 min, the “24 h Urine HMB, % initial dose” value ([2]; listed as FASW) was 17.8±2.9 % initial dose and the “Cpeak (peak plasma HMB concentration)” value ([2]; listed as FASW) was 238.6 ± 16.0 nmol/mL. The “time to peak plasma HMB concentration” value ([2]; listed as FASW) was 41.9 ± 5.8 min, the “AUC greater than for CaHMB capsules” value ([2]; listed as FASW) was 15.4% and the tpeak [2] was 41.9 ± 5.8 min. The half-life ([2]; both sexes, human, plasma, oral, 0.8 g) was 2.5 ± 0.13 h and the Clearance ([2]; both sexes, human, plasma, oral, 0.8 g, read-out: Clearance) was 67.3 ± 3.2 mL/min.
